Assay type in all cases: cell-based
The target of assay [1] is T1, alpha2B receptor (Homo sapiens, UniProt P18089).
T1 construct: expressed in transfected cells; host or cells: NIH-3T3 cells
T1 sequence (P18089 1-450): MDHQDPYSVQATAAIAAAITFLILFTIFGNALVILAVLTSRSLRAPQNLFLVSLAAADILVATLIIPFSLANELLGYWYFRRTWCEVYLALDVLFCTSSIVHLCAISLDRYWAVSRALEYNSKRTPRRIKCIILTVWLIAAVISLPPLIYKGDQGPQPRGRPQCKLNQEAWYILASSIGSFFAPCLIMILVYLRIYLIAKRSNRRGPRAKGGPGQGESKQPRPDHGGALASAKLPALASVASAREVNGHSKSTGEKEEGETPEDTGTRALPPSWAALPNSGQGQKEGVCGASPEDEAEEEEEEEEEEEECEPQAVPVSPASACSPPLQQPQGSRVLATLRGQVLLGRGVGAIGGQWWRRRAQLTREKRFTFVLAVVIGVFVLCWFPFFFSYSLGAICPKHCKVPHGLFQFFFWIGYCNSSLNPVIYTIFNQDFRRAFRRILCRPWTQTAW
Nature of the assay: RSAT (Receptor Selection and Amplification Technology) assay, alpha 2B. The conditions noted are these: for Alpha 2B IA: intrinsic activity: ratio of maximal effect of drug to maximal effect of standard full agonist brimonidine (UK14304). The method, then:
(§1) The RSAT assay measures a receptor-mediated loss of contact inhibition that results in selective proliferation of receptor-containing cells in a mixed population of confluent cells. The increase in cell number is assessed with an appropriate transfected marker gene such as ∃-galactosidase, the activity of which can be easily measured in a 96-well format. Receptors that activate the G protein, Gq, elicit this response. Alpha 2 receptors, which normally couple to Gi, activate the RSAT response when coexpressed with a hybrid Gq protein that has a Gi receptor recognition domain, called Gq/i5.
(§2) NIH-3T3 cells are plated at a density of 2×10^6 cells in 15 cm dishes and maintained in Dulbecco's modified Eagle's medium supplemented with 10% calf serum. One day later, cells are cotransfected by calcium phosphate precipitation with mammalian expression plasmids encoding p-SV-β-galactosidase (5-10 μg), receptor (1-2 μg) and G protein (1-2 μg). 40 μg salmon sperm DNA may also be included in the transfection mixture. Fresh media is added on the following day and 1-2 days later, cells are harvested and frozen in 50 assay aliquots. Cells are thawed and 100 μl added to 100 μl aliquots of various concentrations of drugs in triplicate in 96-well dishes. Incubations continue 72-96 hr at 37° C. After washing with phosphate-buffered saline, ∃-galactosidase enzyme activity is determined by adding 200 μl of the chromogenic substrate (consisting of 3.5 mM o-nitrophenyl-β-D-galactopyranoside and 0.5% nonidet P-40 in phosphate buffered saline), incubating overnight at 30° C. and measuring optical density at 420 nm. The absorbance is a measure of enzyme activity, which depends on cell number and reflects a receptor-mediated cell proliferation. The efficacy or intrinsic activity is calculated as a ratio of the maximal effect of the drug to the maximal effect of a standard full agonist for each receptor subtype. Brimonidine, also called UK14304, the chemical structure of which is shown below, is used as the standard agonist for the alpha2A, alpha2B and alpha2C receptors.

Assay [2] concerns the target T2, alpha2C receptor (Homo sapiens, UniProt P18825).
T2 construct: expressed in transfected cells; host or cells: NIH-3T3 cells
T2 sequence (P18825 1-462): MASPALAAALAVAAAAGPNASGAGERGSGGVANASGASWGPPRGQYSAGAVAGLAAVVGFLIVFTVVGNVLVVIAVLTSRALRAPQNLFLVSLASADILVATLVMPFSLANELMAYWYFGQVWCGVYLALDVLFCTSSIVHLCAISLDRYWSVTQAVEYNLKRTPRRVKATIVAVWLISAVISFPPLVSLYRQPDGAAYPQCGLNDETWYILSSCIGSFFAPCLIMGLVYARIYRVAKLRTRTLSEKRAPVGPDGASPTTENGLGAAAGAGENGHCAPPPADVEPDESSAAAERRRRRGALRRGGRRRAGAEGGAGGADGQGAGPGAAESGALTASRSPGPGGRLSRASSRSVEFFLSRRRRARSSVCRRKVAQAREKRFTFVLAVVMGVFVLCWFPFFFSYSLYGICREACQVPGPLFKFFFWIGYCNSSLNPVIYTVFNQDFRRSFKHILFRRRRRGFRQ
Nature of the assay: RSAT (Receptor Selection and Amplification Technology) assay, alpha 2C. The conditions noted are these: for Alpha 2C EC50 / pEC50: RSAT, transfected NIH-3T3 cells, "not active" = not active at concentrations less than 10 micromolar; for Alpha 2C IA: intrinsic activity: ratio of maximal effect of drug to maximal effect of standard full agonist brimonidine (UK14304).
Excerpt: (§3) The aryl fluoroethyl ureas of the invention are agonists of alpha2 adrenergic receptors. […] Al, 1995, Pharmacol. Toxicol. 76, pp. 308-311 (incorporated herein by reference) and is also described below. Another reference pertinent to this assay is Conklin et al. (1993) Nature 363:274-6, Receptor Selection and Amplification Technology (RSAT) assay, also incorporated herein by reference.
as §1, §2
(§4) The results of the RSAT assay with several exemplary compounds of the invention are disclosed in Table 1 below together with the chemical structures of these compounds. “Not active” means the compounds are not active at concentrations less than 10 micromolar.

The target in assay [3] is T3, alpha2A receptor (Homo sapiens, UniProt P08913).
T3 construct: expressed in transfected cells; host or cells: NIH-3T3 cells
T3 sequence (P08913 1-465): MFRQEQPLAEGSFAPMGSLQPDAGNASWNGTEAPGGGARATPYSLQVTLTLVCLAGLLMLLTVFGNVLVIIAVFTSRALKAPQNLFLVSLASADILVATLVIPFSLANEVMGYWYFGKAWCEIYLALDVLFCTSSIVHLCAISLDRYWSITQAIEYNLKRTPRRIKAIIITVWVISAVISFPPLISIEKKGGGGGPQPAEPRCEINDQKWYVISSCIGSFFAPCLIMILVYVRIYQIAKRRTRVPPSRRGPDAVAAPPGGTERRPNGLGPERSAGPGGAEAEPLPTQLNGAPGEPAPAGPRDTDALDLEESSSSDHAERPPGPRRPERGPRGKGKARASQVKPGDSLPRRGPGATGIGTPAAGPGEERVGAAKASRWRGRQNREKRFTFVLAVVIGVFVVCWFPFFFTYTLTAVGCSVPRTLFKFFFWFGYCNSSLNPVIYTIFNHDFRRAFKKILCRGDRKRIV
Nature of the assay: RSAT (Receptor Selection and Amplification Technology) assay, alpha 2A. The conditions noted are these: for Alpha 2A EC50 / pEC50: RSAT, transfected NIH-3T3 cells, "not active" = not active at concentrations less than 10 micromolar; for Alpha 2A IA: intrinsic activity: ratio of maximal effect of drug to maximal effect of standard full agonist brimonidine (UK14304).
Excerpt: as §3, §1, §2, §4

Where [4] appears, read: RSAT, transfected NIH-3T3 cells, "not active" = not active at concentrations less than 10 micromolar, read-out: Alpha 2B EC50.

pEC50: −log10 of the molar value. Read-outs that look alike come from different tables or passages of the source.

Regarding `Cc1cccc(C(NC(=O)NCCF)c2ccc(C)s2)c1` (centres unmarked) [Compound 34, 1-(2-fluoro-ethyl)-3-[(5-methyl-thiophen-2-yl)-m-tolyl-methyl]-urea], the pEC50 in assay [1] (setting [4]) was 6.08. Besides, the “Alpha 2B IA” value in assay [1] is on record as 0.41. Also, the “Alpha 2C EC50” value in assay [2] is given as “not active”. Further, in assay [3], the “Alpha 2A EC50” value is given as “not active”.
In the case of `O=C(NCCF)NCc1ccccn1` [Compound 35, 1-(2-fluoro-ethyl)-3-pyridin-2-ylmethyl-urea], in assay [1], the pEC50 is 5.70 and the “Alpha 2B IA” value stood at 0.75. Further, in assay [2], the pEC50 was 5.43 and the “Alpha 2C IA” value came out at 0.38. In addition, the “Alpha 2A EC50” value in assay [3] is reported as “not active”.
For `Cc1cccc(CNC(=O)NCCF)n1` [Compound 36, 1-(2-fluoro-ethyl)-3-(6-methyl-pyridin-2-ylmethyl)-urea], the negative-log EC50 (pEC50) in assay [1] (setting [4]) was 6.38. Moreover, in assay [1], the “Alpha 2B IA” value came out at 0.78. In assay [2], the pEC50 was 5.75 and the “Alpha 2C IA” value came out at 0.52. In assay [3], the pEC50 was 5.76 and the “Alpha 2A IA” value was 0.62.
`Cc1cccnc1CNC(=O)NCCF` [Compound 37, 1-(2-fluoro-ethyl)-3-(3-methyl-pyridin-2-ylmethyl)-urea]: in assay [1], the pEC50 was 5.45 and the “Alpha 2B IA” value is given as 0.40. The “Alpha 2C EC50” value in assay [2] is “not active”. For the same compound, in assay [3], the “Alpha 2A EC50” value is “not active”.
Consider `O=C(NCCF)NCc1cccc(Br)n1` [Compound 38, 1-(6-bromo-pyridin-2-ylmethyl)-3-(2-fluoro-ethyl)-urea], for which the pEC50 in assay [1] (setting [4]) was 6.23. Besides, in assay [1], the “Alpha 2B IA” value is given as 0.85. Besides, in assay [2], the negative-log EC50 (pEC50) is 5.66 and the “Alpha 2C IA” value was found to be 0.65. Further, the “Alpha 2A EC50” value in assay [3] is “not active”.
For `Cc1ccnc(CNC(=O)NCCF)c1` [Compound 39, 1-(2-Fluoro-ethyl)-3-(4-methyl-pyridin-2-ylmethyl)-urea], the pEC50 in assay [1] (setting [4]) is 6.46. In addition, the “Alpha 2B IA” value in assay [1] is on record as 0.77. For the same compound, in assay [2], the pEC50 was 5.81 and the “Alpha 2C IA” value worked out at 0.61. Further, in assay [3], the pEC50 was 5.66 and the “Alpha 2A IA” value came out at 0.36.
Regarding `Cc1ccc(CNC(=O)NCCF)o1` [Compound 40, 1-(2-fluoro-ethyl)-3-(5-methyl-furan-2-ylmethyl)-urea], in assay [1], the pEC50 was 6.01 and the “Alpha 2B IA” value is given as 0.83. In assay [2], the negative logarithm of the EC50 (pEC50) is 5.58 and the “Alpha 2C IA” value is 0.56. The “Alpha 2A EC50” value in assay [3] was “not active”.
For the compound `O=C(NCCF)NCc1ccc(O)cc1` [Compound 41, 1-(2-fluoro-ethyl)-3-(4-hydroxy-benzyl)-urea], the pEC50 in assay [1] (setting [4]) is 6.53; in assay [2], 6.10. Further, the “Alpha 2B IA” value in assay [1] is on record as 0.84. Also, the “Alpha 2C IA” value in assay [2] is reported as 0.69. Besides, the “Alpha 2A EC50” value in assay [3] is on record as “not active”.
`O=C(NCCF)NCc1cccc(O)c1` [Compound 42, 1-(2-fluoro-ethyl)-3-(3-hydroxy-benzyl)-urea]: the negative logarithm of the EC50 (pEC50) in assay [1] (setting [4]) is 6.86; in assay [2] it was 5.98; in assay [3] it was 5.45. Moreover, the “Alpha 2B IA” value in assay [1] is 0.81. For the same compound, the “Alpha 2C IA” value in assay [2] was determined as 0.67. In assay [3], the “Alpha 2A IA” value stood at 0.33.
For the compound `Cc1nn(C)c(C)c1CNC(=O)NCCF` [Compound 43, 1-(2-fluoro-ethyl)-3-(1,3,5-trimethyl-1H-pyrazol-4-ylmethyl)-urea], the pEC50 in assay [1] (setting [4]) is 5.62; in assay [3], 5.38. Moreover, the “Alpha 2B IA” value in assay [1] was 0.49. In addition, in assay [2], the “Alpha 2C EC50” value was “not active”. Also, the “Alpha 2A IA” value in assay [3] came to 0.30.
As to `Cc1cc(CNC(=O)NCCF)nn1C` [Compound 44, 1-(1,5-dimethyl-1H-pyrazol-3-ylmethyl)-3-(2-fluoro-ethyl)-urea], the pEC50 in assay [1] (setting [4]) is 5.64. In assay [1], the “Alpha 2B IA” value came out at 0.67. In assay [2], the pEC50 is 5.38 and the “Alpha 2C IA” value is listed as 0.31. Further, the “Alpha 2A EC50” value in assay [3] is recorded as “not active”.

These data come from US8557853B2, “Aryl fluoroethyl ureas acting as alpha 2 adrenergic agents” (Allergan, Inc., priority 2007, dated 2013).
